From US20230312587A1, “PTERIDINONE COMPOUNDS AND USES THEREOF” (Vertex Pharmaceutical Incorporated, priority 2018, published 2023)

Columns and labels:
Plk1 = Plk1 (Homo sapiens (Human), UniProt P53350); test: PLK1 inhibition assay (radioactive-phosphate incorporation); format: biochemical; conditions: Ki(app), read-out: PLK1 - 33P.ENZ - CB 10 Ki
How it was run: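 Radioactive-phosphate incorporation with 15 nM Plk1 and 9 µM Sam68 substrate, 20 µM [γ-33P]ATP, in 25 mM HEPES pH 7.5, 10 mM MgCl2, 25 mM NaCl, 2 mM DTT, 1.5% DMSO, room temperature, 45 min. Stopped with TCA/cold ATP, filtered, scintillation counted. Ki(app) from non-linear regression of background-corrected initial rates.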

Colo-205 Control shRNA = test: TCF reporter activity, Colo-205 Control shRNA; format: cell-based; conditions: Homo sapiens
Method: (§1) Colo-205 (ATCC, catalog #CCL-222), HepG2 (ATCC, catalog #HB-8065), CFPAC1 (ATCC, catalog #CRL-1918), or DU4475 (ATCC, catalog #HTB-123) cells are plated in 10 mL of complete DMEM cell culture media [DMEM (Life Technologies, product #11960-051) media supplemented with 10% FBS (Hyclone, catalog #SH30071.03), antimycotic/antibiotic (Life Technologies, product #15240-062), and Glutamax (Life Technologies, product #35050-061)] at 3×10^6 cells per 10 cm cell culture plate (Corning, product #430167). Cells are allowed to attach and grow overnight at 37° C. in humidified 5% CO2. Cells are transduced by addition of 1×10^6 infectious units of lentivirus encoding WFS1 shRNA (Santa Cruz Biotech, catalog #sc-61804-V) or a non-targeting control shRNA (Santa Cruz Biotech, catalog #sc-108080) and 10 ug/ml of Polybrene® (Santa Cruz Biotech, catalog #sc-134220) to the cell culture media. After 48 hours transduced cells are selected by the addition of 1 microgram/mL of puromycin (Life Technologies, catalog #A1113803) to the cell culture media.

[1] = tested on: non-small cell lung cancer (NSCLC) adenocarcinoma line D33966; test: In vivo efficacy, NSCLC patient derived xenograft OD33966; set-up: species or system nu/nu mice; conditions: Mus musculus, 336 h; NSCLC PDX OD33966, oral, 100 mpk qd, treatment day 14; read-out: % TGI
Method: Female immune deficient mice (Charles River, 4-6 wks age) were anesthetized with Ketamine-Xylazine (140 mg/kg-14 mg/kg ip) and shaved. Puralube eye ointment was applied to the eyes to prevent desiccation of the corneas. Betadine and 70% ethanol was applied to the shaved location to sterilize the skin at the location of the incision. The animals were placed in a biosafety cabinet for the duration of the surgery. Using scissors, an 8 to 10 mm incision was made in the lateral flank of the skin. A tumor fragment weighing between 50 and 150 mg was placed under the skin at the incision site using forceps, and staples were used to close the incision. The staples were removed 5 to 7 days after surgery. Starting approximately two weeks after implantation, animals were weighed, and tumors were measured using caliper twice weekly. Tumor volume was calculated using the formula: volume=length×width^2×0.52.
Compound administration began when xenografts reached approximately 100-300 mm3 and continued until control xenografts reached […] of the animal's body weight. Test compounds were administered orally by gastric gavage. Percent tumor growth inhibition (TG) was calculated on the indicated treatment day. Percent TGI is defined as: [1−(del T/del C)]×100%, where del T is the final minus initial average volumes of the treated group, and del C is the final minus initial average volumes of the control group. […] The tested compounds were administered orally. Vehicle control consisted of either 0.5% methylcellulose/0.1% sodium lauryl sulfate or 20% captisol. Tumor volumes were determined by caliper measurement twice a week.

[2] = tested on: Colo-205 cells, non-targeting control shRNA; test: Cell viability, Colo-205 control shRNA; format: cell-based; conditions: Homo sapiens
Method: as §1

[3] = tested on: Colo-205 cells, shRNA targeting WFS1; test: Cell viability, Colo-205 WFS1 shRNA; format: cell-based
Method: as §1

[4] = tested on: DU4475 cells, non-targeting control shRNA; test: Cell viability, DU4475 control shRNA; format: cell-based; conditions: Homo sapiens, DU-4475
Method: as §1

DU4475 WFS1 shRNA = test: TCF reporter activity, DU4475 WFS1 shRNA; format: cell-based; conditions: Homo sapiens, DU-4475
Method: as §1

[5] = tested on: DU4475 cells, shRNA targeting WFS1; test: Cell viability, DU4475 WFS1 shRNA; format: cell-based; conditions: Homo sapiens, DU-4475
Method: as §1

[6] = tested on: HepG2 cells, non-targeting control shRNA; test: Cell viability, HepG2 control shRNA; format: cell-based; conditions: Homo sapiens
Method: as §1

Colo-205 WFS1 shRNA = test: TCF reporter activity, Colo-205 WFS1 shRNA; format: cell-based; conditions: Homo sapiens
Method: as §1

DU4475 Control shRNA = test: TCF reporter activity, DU4475 Control shRNA; format: cell-based; conditions: Homo sapiens, DU-4475
Method: as §1

[7] = tested on: HepG2 cells, shRNA targeting WFS1; test: Cell viability, HepG2 WFS1 shRNA; format: cell-based; conditions: Homo sapiens
Method: as §1

Chain of Plk1 (P53350 whole entry, species assumed): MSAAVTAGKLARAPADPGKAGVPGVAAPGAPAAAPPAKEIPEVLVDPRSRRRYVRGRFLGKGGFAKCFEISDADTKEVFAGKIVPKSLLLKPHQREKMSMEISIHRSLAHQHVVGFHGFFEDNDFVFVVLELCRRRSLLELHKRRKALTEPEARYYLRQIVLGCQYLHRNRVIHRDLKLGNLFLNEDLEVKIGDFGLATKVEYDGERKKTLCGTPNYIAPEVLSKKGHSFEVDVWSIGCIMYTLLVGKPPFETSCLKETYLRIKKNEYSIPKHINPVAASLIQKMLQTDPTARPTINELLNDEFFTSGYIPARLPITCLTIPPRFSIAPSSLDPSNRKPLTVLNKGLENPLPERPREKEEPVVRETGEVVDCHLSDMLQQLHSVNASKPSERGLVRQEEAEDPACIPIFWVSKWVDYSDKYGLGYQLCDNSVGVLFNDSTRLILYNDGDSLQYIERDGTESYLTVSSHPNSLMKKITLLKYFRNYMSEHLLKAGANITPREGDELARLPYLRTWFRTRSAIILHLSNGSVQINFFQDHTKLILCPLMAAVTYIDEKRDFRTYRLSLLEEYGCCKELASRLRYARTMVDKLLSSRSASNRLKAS

Work on `Cc1nc(N[C@H]2C[C@H](Oc3cc(F)c(F)c(F)c3)C2)nc2c1N(C)C(=O)[C@H](C)N2C` [Compound 253, (7S)-4,5,7,8-tetramethyl-2-((trans-3-(3,4,5-trifluorophenoxy)cyclobutyl)amino)-7,8-dihydropteridin-6(5H)-one] yielded a Ki (Plk1) greater than 4000 nM, an IC50 (Colo-205 Control shRNA) of 0.2 µM and an inhibition in vivo at 100 mg/kg [1] of 96.6%. The IC50 [2] was 0.14 µM, the “increase in the IC50 in reducing cell viability on WFS1 knockdown” value ([3]; DU4475, Colo-205 and HepG2 cells, WFS1 shRNA vs control cells) was “greater than 50 fold” and the IC50 ([3]; Homo sapiens, Colo-205 WFS1 shRNA) was greater than 9 µM. It also gave an IC50 [4] of 0.1 µM, an IC50 (DU4475 WFS1 shRNA) of 1 µM and an IC50 [5] of 7.8 µM. The IC50 [6] was 0.2 µM, the IC50 (Colo-205 WFS1 shRNA) was 1.5 µM and the IC50 (DU4475 Control shRNA) was 0.2 µM. For the same compound, the IC50 [7] was 17 µM.
